Data published in patent US20180368404A1, “3-PYRIDYL HETEROBICYCLIC COMPOUND FOR CONTROLLING INVERTEBRATE PESTS” (BASF SE, priority 2014, published 2018).

What was measured:
Format in all cases: in vivo
[1] = tested on: Cowpea Aphid (Aphis craccivora); experiment: Cowpea aphid spray test on potted cowpea plants; conditions: population reduction assessed after 24, 72 and 120 hours, read-out: mortality in comparison with untreated controls
Protocol: If not otherwise specified the test solutions were prepared as follows:
The active compound was dissolved at the desired concentration in a mixture of 1:1 (vol:vol) distilled water: acetone. The test solution was prepared at the day of use and in general at concentrations of ppm (wt/vol).
Potted cowpea plants colonized with 100-150 aphids of various stages were sprayed after the pest population had been recorded. Population reduction was assessed after 24, 72, and 120 hours.

[2] = tested on: Silverleaf Whitefly (Bemisia argentifolii, Adult); experiment: Silverleaf whitefly test on sprayed cotton plants; conditions: 72 h, 3 days after treatment, read-out: mortality in comparison with untreated controls
Protocol: (§1) The active compounds were formulated in cyclohexanone as a 10,000 ppm solution supplied in 1.3 ml ABgene® tubes. These tubes were inserted into an automated electrostatic sprayer equipped with an atomizing nozzle and they served as stock solutions for which lower dilutions were made in 1:1 (vol:vol) water: acetone. A nonionic surfactant (Kinetic®) was included in the solution at a volume of 0.01% (v/v).
Cotton plants at the cotyledon stage (one plant per pot) were sprayed by an automated electrostatic plant sprayer equipped with an atomizing spray nozzle. The plants were dried in the sprayer fume hood and then removed from the sprayer. Each pot was placed into a plastic cup and 10 to 12 whitefly adults (approximately 3-5 days […]) were introduced. The insects were collected using an aspirator and 0.6 cm, nontoxic Tygon® tubing (R-3603) connected to a barrier pipette tip. The tip, containing the collected insects, was then gently inserted into the soil containing the treated plant, allowing insects to crawl out of the tip to reach the foliage for feeding. Cups were covered with a reusable screened lid (150-micron mesh polyester screen PeCap from Tetko, Inc.). Test plants were maintained in a growth room at 25° C. and 20-40% relative humidity for 3 days, avoiding direct exposure to fluorescent light (24 hour photoperiod) to prevent trapping of heat inside the cup. Mortality was assessed 3 days after treatment, compared to untreated control plants.

[3] = tested on: Vetch Aphid (Megoura viciae); experiment: Vetch aphid bean leaf disk microtiter test; conditions: foliar, 144 h, leaf disks sprayed with 2.5 μl, 6 days, read-out: mortality in comparison with untreated controls
Protocol: The active compounds were formulated in 3:1 (vol:vol) water: DMSO with different concentrations of formulated compounds.
Bean leaf disks were placed into microtiterplates filled with 0.8% agar-agar and 2.5 ppm OPUS™. The leaf disks were sprayed with 2.5 μl of the test solution and 5 to 8 adult aphids were placed into the microtiter plates which were then closed and kept at 23±1° C. and 50±5% relative humidity under fluorescent light for 6 days. Mortality was assessed on the basis of vital, reproduced aphids. Aphid mortality and fecundity was then visually assessed.

[4] = tested on: Cotton Aphid (Aphis gossypii, Mixed Life Stages); experiment: Cotton aphid spray test on infested cotton plants; conditions: 120 h, after 5 days, read-out: mortality in comparison with untreated controls
Protocol: as §1
Cotton plants at the cotyledon stage were infested with aphids prior to treatment by placing a heavily infested leaf from the main aphid colony on top of each cotyledon. Aphids were allowed to transfer overnight to accomplish an infestation of 80-100 aphids per plant and the host leaf was removed. The infested plants were then sprayed by an automated electrostatic plant sprayer equipped with an atomizing spray nozzle. The plants were dried in the sprayer fume hood, removed from the sprayer, and then maintained in a growth room under fluorescent lighting in a 24-hr photoperiod at 25° C. and 20-40% relative humidity. Aphid mortality on the treated plants, relative to mortality on untreated control plants, was determined after 5 days.

[5] = tested on: Green Peach Aphid (Myzus persicae); experiment: Green peach aphid spray test on infested bell pepper plants; conditions: 120 h, after 5 days, read-out: mortality in comparison with untreated controls
Protocol: as §1
Bell pepper plants at the first true-leaf stage were infested prior to treatment by placing heavily infested leaves from the main colony on top of the treatment plants. Aphids were allowed to transfer overnight to accomplish an infestation of 30-50 aphids per plant and the host leaves were removed. The infested plants were then sprayed by an automated electrostatic plant sprayer equipped with an atomizing spray nozzle. The plants were dried in the sprayer fume hood, removed, and then maintained in a growth room under fluorescent lighting in a 24 hour photoperiod at 25° C. and 20-40% relative humidity. Aphid mortality on the treated plants, relative to mortality on untreated control plants, was determined after 5 days.

[6] = tested on: Orchid thrips (Dichromothrips corbetti); experiment: Orchid thrips petal dip test; conditions: petals dipped, after 72 hours, read-out: mortality in comparison with untreated controls
Protocol: The active compounds were formulated as a 1:1 (vol:vol) water: acetone solution. Surfactant (Alkamuls EL 620) was added at the rate of 0.1% (vol/vol). Vanda orchids petals were cleaned, washed and air dried prior to spraying. Petals were dipped into the test solution for 3 seconds, air dried, placed inside a resealable plastic and inoculated with 20 adults. The treated petals were kept inside the […] room at 28-29° C. and relative humidity of 50-60%. Percent mortality was recorded after 72 hours.

COc1ccc2nc(-c3cccnc3)oc2c1 [I-1, 6-methoxy-2-(3-pyridyl)-1,3-benzoxazole]
≥ 75%: mortality at 500 ppm [1]

COc1ccc2nn(-c3cccnc3)cc2c1 [I-B4, 5-methoxy-2-(3-pyridyl)indazole]
≥ 75%: mortality at 300 ppm [2]

CCOCCSc1ccc2nn(-c3cccnc3)cc2c1 [I-B5, 5-(2-ethoxyethylsulfanyl)-2-(3-pyridyl)indazole]
≥ 75%: mortality at 500 ppm [1] | mortality at 800 ppm [3]

CCOCCSc1cccc2nn(-c3cccnc3)cc12 [I-C1, 4-(2-ethoxyethylsulfanyl)-2-(3-pyridyl)indazole]
≥ 75%: mortality at 500 ppm [1] | mortality at 300 ppm [4] | mortality at 300 ppm [2] | mortality at 800 ppm [3] | mortality at 300 ppm [5]

CCOCCSc1ccc2nn(-c3cccnc3)cc2n1 [I-D16, 5-(2-ethoxyethylsulfanyl)-2-(3-pyridyl)pyrazolo[4,3-b]pyridine]
≥ 75%: mortality at 300 ppm [4] | mortality at 800 ppm [3] | mortality at 300 ppm [5]

CCOCC[S+]([O-])c1ccc2nn(-c3cccnc3)cc2n1 (centres unmarked) [I-D39, 5-(2-ethoxyethylsulfinyl)-2-(3-pyridyl)pyrazolo[4,3-b]pyridine]
≥ 75%: mortality at 300 ppm [4] | mortality at 300 ppm [2] | mortality at 800 ppm [3] | mortality at 300 ppm [5]

CCOCCS(=O)(=O)c1ccc2nn(-c3cccnc3)cc2n1 [I-D46, 5-(2-ethoxyethylsulfonyl)-2-(3-pyridyl)pyrazolo[4,3-b]pyridine]
≥ 75%: mortality at 300 ppm [4] | mortality at 300 ppm [2] | mortality at 800 ppm [3] | mortality at 300 ppm [5]

COc1ccc2nn(-c3cccnc3)cc2n1 [I-D57, 5-methoxy-2-(3-pyridyl)pyrazolo[4,3-b]pyridine]
≥ 75%: mortality at 500 ppm [1] | mortality at 300 ppm [4] | mortality at 300 ppm [2] | mortality at 800 ppm [3] | mortality at 300 ppm [5]

CC(C)(COc1ccc2nn(-c3cccnc3)cc2n1)S(C)(=O)=O [I-D59, 5-(2-methyl-2-methylsulfonyl-propoxy)-2-(3-pyridyl)pyrazolo[4,3-b]pyridine]
≥ 75%: mortality at 500 ppm [1] | mortality at 300 ppm [4] | mortality at 300 ppm [2] | mortality at 800 ppm [3] | mortality at 300 ppm [5] | mortality at 500 ppm [6]

FC(F)(F)COc1ccc2nc(-c3cccnc3)cn2n1 [I-E14, 2-(3-pyridyl)-6-(2,2,2-trifluoroethoxy)imidazo[1,2-b]pyridazine]
≥ 75%: mortality at 300 ppm [4] | mortality at 300 ppm [2] | mortality at 800 ppm [3] | mortality at 300 ppm [5]

COc1ccc2nc(-c3cccnc3)sc2n1 [I-H4, 5-methoxy-2-(3-pyridyl)thiazolo[5,4-b]pyridine]
≥ 75%: mortality at 500 ppm [1]

COc1ccc2nc(-c3cccnc3)oc2n1 [I-K1, 5-methoxy-2-(3-pyridyl)oxazolo[5,4-b]pyridine]
≥ 75%: mortality at 500 ppm [1] | mortality at 300 ppm [4] | mortality at 300 ppm [2] | mortality at 800 ppm [3] | mortality at 300 ppm [5]
